In series [1] the test system is Rattus norvegicus. The following applies: oral.
Series [2] deals with Rattus norvegicus. Conditions: subchronic, duration: 13 weeks, dermal, non-occlusive, Sprague-Dawley.
Setting [3] is: subchronic, gavage, M, Sprague-Dawley, Clinical Observation: Salivation Locomotor activity decrease, BradypneaIncomplete eyelid opening + Body Weight Changes: decrease + Blood ….
[4] abbreviates: subchronic, gavage, M, Sprague-Dawley, Absolute Organ Weight: Liver increase + Relative Organ Weight: Liver increase + Necropsy: Stomach-Thickening of limiting ledge + ….
Setting [5] is: short-term, duration: 28 days, gavage, M, Sprague-Dawley, Clinical Observation: Salivation Spontaneous locomotion decrease, Respiratory rate decrease.
Setting [6] is: subchronic, gavage, M, Sprague-Dawley, Hematology: RBC decrease, Hgb decrease, Ret increase + Blood Chemistry: Cho increase, PL increase + Absolute Organ Weight: Kidney increase….
[7] abbreviates: short-term, duration: 28 days, gavage, M, Sprague-Dawley, Clinical Observation: Locomotor activity decrease, Staining around nose and mouth Salivation + Functional Observational Battery: Motor ….
The mark [8] stands for this setting: subchronic, gavage, M, Sprague-Dawley, Clinical Observation: Salivation PtosisReddish urine + Functional Observational Battery: Salivation Coordination of movement, abnormal ….
Setting [9] is: subchronic, gavage, M, Sprague-Dawley, Clinical Observation: Soiled perigenital region + Body Weight Changes: Weight gain decrease + Food Consumption: decrease(week 1) + Blood ….

The text below walks through data of EPA's ToxValDB 9.5.

Molecules are shown by their SMILES. Structures can show the parent of a compound that is named as a salt.

Usually NOAEL stands for the highest dose or exposure tested at which no adverse effect was seen. For the compound `CCCCCCCCCCCCCCCCCC(=O)[O-].CCCCCCCCCCCCCCCCCC(=O)[O-].[Ca+2]` [Calcium stearate], the NOAEL in the series with Rattus norvegicus [1] (short-term, duration: 28 days, gavage, M, Sprague-Dawley, Urinalysis: Bilirubin increase + Absolute Organ Weight: Spleen increase) amounted to 2000 mg/kg-day; in the series with Rattus norvegicus [2] (F) it was 2000 mg/kg-day; with Rattus norvegicus [2] (M), 2000 mg/kg-day.
With `CCCCCCCC[Si](OCC)(OCC)OCC` [Triethoxyoctylsilane], the NOAEL with Rattus norvegicus [1] (short-term, duration: 28 days, diet, Fischer 344) worked out at 10000 ppm; in the series on Rattus norvegicus [1] (short-term, duration: 29 days, gavage, M/F, Sprague-Dawley, Clinical Observation: Soiling of the head (nose, chin, muzzle) + Body Weight Changes: Mean body weight decrease, Weight gain decrease + Food…), 300 mg/kg-day.
As for `CC1(C)S[C@@H]2[C@H](NC(=O)COc3ccccc3)C(=O)N2[C@H]1C(=O)[O-].[K+]` [Penicillin VK], the NOEL in the series with Rattus norvegicus [1] (subchronic, duration: 13 weeks, gavage, M/F, Fischer 344, Clinical Observation: Diarrhea + Body Weight Changes: decrease + Histopathology: Stomach/glandular-Mucous cell metaplasia) came to 370 mg/kg-day.
In the case of `C=CC(C)(O)CCC=C(C)C` (configuration not stated) [Linalool], in the series on Rattus norvegicus [1] (short-term, duration: 28 days, gavage, M/F, CD/BR, Deaths + Blood Chemistry: TP increase, Alb increase, Ca increase, Glu decrease + Absolute Organ Weight: Liver increase, Kidney increase + …), the NOAEL came to 160 mg/kg-day.
On to `CC(C)=CCO` [3-Methyl-2-buten-1-ol], for which the NOAEL in the series on Rattus norvegicus [1] (subchronic, duration: 90 days, drinking water, M/F, Wistar, Body Weight Changes: Mean body weight decrease, Weight gain decrease + Food Consumption: decrease + Water Consumption: decrease + Urinalysis…) was 152 mg/kg-day.
On to `COC(=O)c1cccc(C(=O)OC)c1` [Dimethyl isophthalate], for which, in the series with Rattus norvegicus [1] (subchronic, gavage, M, Sprague-Dawley, Clinical Observation: Salivation + Urinalysis: Volume increase, Na increase), the NOAEL stood at 250 mg/kg-day.
Regarding `COCc1ccc(COC)cc1` [1,4-Bis(methoxymethyl)benzene], in the series on Rattus norvegicus [1] (setting [3]), the NOAEL was determined as 50 mg/kg-day and the NOEL came to 50 mg/kg-day.
Turning to `N#CN=C(N)N` [Cyanoguanidine], the NOAEL with Rattus norvegicus [1] (subchronic, duration: 44 days, gavage, M, CD(SD)) was 1000 mg/kg-day.
With `CCOC(=O)/C=C\C(=O)OCC` [Diethyl maleate], in the series with Rattus norvegicus [1] (setting [4]), the NOAEL was 20 mg/kg-day and the NOEL stood at 20 mg/kg-day.
Take `O=P(OCCCl)(OCCCl)OCCCl` [Tris(2-chloroethyl) phosphate]: in the series with Rattus norvegicus [1] (setting [5]), the NOAEL was 400 mg/kg-day and the NOEL was 80 mg/kg-day.
For the compound `C[C@](N)(Cc1ccc(O)c(O)c1)C(=O)O.C[C@](N)(Cc1ccc(O)c(O)c1)C(=O)O.O.O.O` [Methyldopa sesquihydrate], the NOEL with Rattus norvegicus [1] (subchronic, duration: 13 weeks, diet, M/F, Fischer 344, Deaths + Body Weight Changes: decrease + Food Consumption: decrease + Absolute Organ Weight: Liver decrease + Relative Organ Weight: Liver …) was less than 298 mg/kg-day.
On to `COC1COC(OC2COC(OC3COC(OC4COC(OC)C(OS(=O)(=O)[O-])C4OS(=O)(=O)[O-])C(OC4OC(C(=O)[O-])C(OC)C(OS(=O)(=O)[O-])C4OS(=O)(=O)[O-])C3OS(=O)(=O)[O-])C(OS(=O)(=O)[O-])C2OS(=O)(=O)[O-])C(OS(=O)(=O)[O-])C1OS(=O)(=O)[O-].[Na+].[Na+].[Na+].[Na+].[Na+].[Na+].[Na+].[Na+].[Na+].[Na+]` (configuration not stated) [Elmiron], for which, in the series with Rattus norvegicus [1] (repeat dose other, gavage, M/F, Fischer 344, Hematology: Hct decrease, Hgb decrease, RBC decrease, Plt increase, WBC increase + Absolute Organ Weight: Liver increase, Spleen increase, …), the NOEL is less than 63 mg/kg-day.
In the case of `C=C(C)CCl` [3-Chloro-2-methylpropene], in the series with Rattus norvegicus [1] (subchronic, duration: 13 weeks, gavage, M/F, Fischer 344, Deaths + Clinical Observation: Rough coat>400 + Body Weight Changes: decrease + Histopathology: Liver-Inflammation, Chronic, Focal Liver-…), the NOEL is 100 mg/kg-day.
Take `O=C/C=C/[O-].[Na+]` [Malonaldehyde, sodium salt]: the NOEL in the series on Rattus norvegicus [1] (subchronic, duration: 13 weeks, gavage, M/F, Fischer 344, Deaths + Clinical Observation: Rough hair coats Red exudate around the eyes Impairment of hindleg motor ability + Body Weight Changes: …) came out at 30 mg/kg-day.
For orientation: LOAEL means the lowest dose or exposure tested at which an adverse effect was seen. Regarding `Sc1ccccc1` [Benzenethiol], in the series on Rattus norvegicus [1] (setting [6]), the LOAEL was determined as 0.4 mg/kg-day, the LOEL turned out to be 0.4 mg/kg-day, the NOAEL is less than 0.4 mg/kg-day and the NOEL was less than 0.4 mg/kg-day.
Consider `C=CC(C)(C)O` [2-Methyl-3-buten-2-ol], for which, in the series on Rattus norvegicus [1] (short-term, duration: 28 days, gavage, M/F, Wistar, Deaths + 'excluded + Clinical Observation: Sedation Ataxia Uncoordinated gait Salivation + Blood Chemistry: ALT increase, AST increase + …), the NOAEL came out at 50 mg/kg-day.
Take `CC(C)(C)CC(C)(C)c1cc(O)c(C(C)(C)CC(C)(C)C)cc1O` [2,5-Bis(1,1,3,3-tetramethylbutyl)hydroquinone]: the NOEL in the series on Rattus norvegicus [1] (subchronic, gavage, M, Sprague-Dawley, Clinical Observation: Soft stool Soiled perineal region + Body Weight Changes: Gain decrease + Food Consumption: increase + Hematology: Hgb …) was 10 mg/kg-day.
For the compound `C=C[Si](C)(C)O[Si](C)(C)C=C` [Divinyltetramethyldisiloxane], the NOAEL in the series with Rattus norvegicus [1] (short-term, duration: 28 days, gavage, M, CD(SD), Clinical Observation: Clear material around the mouth Red material around the mouth + Body Weight Changes: Mean body weight decrease, Weight…) was less than 50 mg/kg-day.
On to `Cc1cc(O)c2c(c1)C(=O)c1cc(O)cc(O)c1C2=O` [Emodin], for which the NOEL in the series on Rattus norvegicus [1] (chronic, duration: 14 weeks, diet, M/F, Fischer 344, Clinical Observation: Body color change Diarrhea + Body Weight Changes: decrease. >2500 + Food Consumption: decrease + Hematology: Hct …) was less than 24.4 mg/kg-day.
On to `[In]` [Indium], for which, in the series with Rattus norvegicus [1] (short-term, duration: 28 days, gavage, Crj:CD), the NOEL stood at 1000 mg/kg-day.
`Cc1ccc(S(=O)(=O)Cl)cc1` [p-Toluenesulfonyl chloride] came in with an NOAEL in the series with Rattus norvegicus [1] (subchronic, duration: 51 days, gavage, M, Sprague-Dawley, Clinical Observation: Soft stool Staining around anorectal region Staining around mouth Staining around nose(blood like) Loss of hair around…) of less than 150 mg/kg-day.
As for `CCCC=NO` [Butyraldehyde oxime], the NOEL with Rattus norvegicus [1] (subchronic, gavage, M/F, Fischer 344, Deaths + Body Weight Changes: decrease + Urinalysis: Thiocyanate (I1/4mol/24 hr) increase, Thiocyanate/creatinine ratio increase, Creatinine…) was less than 25 mg/kg-day.
Regarding `CCC1(c2ccccc2)C(=O)NCNC1=O` [Primidone], the NOEL with Rattus norvegicus [1] (chronic, duration: 14 weeks, diet, M/F, Fischer 344, Body Weight Changes: decrease + Hematology: Plt increase, Hgb decrease, WBC increase, Lympho increase + Blood Chemistry: Blood cemistry', '…) is less than 23.4 mg/kg-day.
For `S=c1[nH]c(=S)[nH]c(=S)[nH]1` [Trithiocyanuric acid], in the series with Rattus norvegicus [1] (subchronic, gavage, M, Sprague-Dawley, Deaths + Clinical Observation: Black area of the pinna Nodule of the tail Dark purple distally of the tail Reddish urine + Body Weight …), the NOEL is less than 62.5 mg/kg-day.
Take `O=Cc1cccc(Cl)c1Cl` [2,3-Dichlorobenzaldehyde]: in the series with Rattus norvegicus [1] (short-term, duration: 28 days, gavage, M/F, Clinical Observation: Salivation + Body Weight Changes: Body weight gain decrease + Blood Chemistry: GPT increase, A/G increase + Organ …), the NOEL was less than 20 mg/kg-day.
`O=NN1CN2CN(C1)CN(N=O)C2` [N,N-Dinitrosopentamethylenetetramine]: in the series with Rattus norvegicus [1] (setting [7]), the NOAEL is less than 40 mg/kg-day and the NOEL is less than 40 mg/kg-day.
Consider `O=C(O)c1cccc([N+](=O)[O-])c1` [3-Nitrobenzoic acid], for which the NOEL in the series on Rattus norvegicus [1] (subchronic, gavage, M, Sprague-Dawley, Body Weight Changes: decrease + Hematology: RBC decrease + Blood Chemistry: TP decrease, A/G increase, Pi increase, K increase, Cl decrease…) was found to be 20 mg/kg-day.
With `CC(=O)OC1CC(C)OC(C)O1` (configuration not stated) [Dimethoxane], in the series with Rattus norvegicus [1] (subchronic, duration: 13 weeks, gavage, M/F, Fischer 344, Body Weight Changes: decrease + Relative Organ Weight: Kidney increase, Brain increase, Lung increase + Histopathology: Stomach/forestomach…), the NOEL was found to be 31 mg/kg-day.
Take `CCC[N+](=O)[O-]` [1-Nitropropane]: the NOAEL with Rattus norvegicus [1] (short-term, duration: 28 days, gavage, M/F, Sprague-Dawley, Deaths + Clinical Observation: Salivation Red/brown staining around the mouth Hunched posture + Body Weight Changes: Body weight gain …) worked out at 30 mg/kg-day.
As to `COc1cc(NC(=O)CC(C)=O)c(OC)cc1Cl` [4'-Chloro-2',5'-dimethoxyacetoacetanilide], in the series on Rattus norvegicus [1] (setting [8]), the NOAEL was 40 mg/kg-day and the NOEL was found to be 8 mg/kg-day.
Take `COc1cc(S(=O)(=O)CCOS(=O)(=O)O)c(OC)cc1N`: the NOEL in the series on Rattus norvegicus [1] (short-term, duration: 28 days, gavage, F, Blood Chemistry: Na increase + Relative Organ Weight: Liver increase, Kidney increase) was 30 mg/kg-day.
As to `O=S(=O)([O-])c1cccc2c(S(=O)(=O)[O-])cccc12.[Na+].[Na+]` [1,5-Naphthalenedisulfonic acid, disodium salt], the NOEL in the series on Rattus norvegicus [1] (subchronic, gavage, M, Sprague-Dawley, Clinical Observation: Soft stool Diarrhea + Necropsy: Stomach/Forestomach-Elevation of limiting ridge Cecum-Enlargement + Histopathology: …) worked out at 40 mg/kg-day.
As for `Cc1cccc(Cl)c1Cl` [Benzene, 1,2-dichloro-3-methyl-], in the series on Rattus norvegicus [1] (setting [9]), the NOAEL was determined as 200 mg/kg-day and the NOEL is less than 50 mg/kg-day.
In the case of `[Cl-].[Cl-].[Ti+4].c1cc[cH-]c1.c1cc[cH-]c1` [Titanocene dichloride], in the series with Rattus norvegicus [1] (subchronic, duration: 13 weeks, gavage, M/F, Fischer 344, Deaths + Body Weight Changes: decrease + Absolute Organ Weight: Liver increase, Thymus decrease + Relative Organ Weight: kidney increase, …), the NOEL is less than 8 mg/kg-day.
With `Cc1cc(Cc2cc(C)cc(C(C)(C)C)c2O)c(O)c(C(C)(C)C)c1` [2,2'-Methylenebis(4-methyl-6-tert-butylphenol)], the NOEL in the series on Rattus norvegicus [1] (subchronic, diet, F, Wistar, Deaths: Survival rate.6 (45% % ).0 (20% % ) + Body Weight Changes: decrease + Food Consumption: decrease + Hematology: Hgb decrease RBC …) was less than 104 mg/kg-day; in the series on Rattus norvegicus [1] (subchronic, diet, M/F, Wistar, Deaths: Survival rate.6 (45% % ).0 (20% % ) + Body Weight Changes: decrease + Food Consumption: decrease + Hematology: Hgb decrease RBC …), less than 0.12%; in the series on Rattus norvegicus [1] (subchronic, diet, M/F, Wistar, Hematology: Hgb increasemg/kg/ + Blood Chemistry: Cho increasemg/kg/ + Absolute Organ Weight: Liver increasemg/kg/ + Relative Organ …), 1.92 mg/kg-day.
Take `COc1ccc(C)cc1N` [2-Methoxy-5-methylaniline]: in the series on Rattus norvegicus [1] (short-term, duration: 28 days, gavage, M/F, Clinical Observation: Salivation + Body Weight Changes: Weight gain decrease + Food Consumption: decrease + Urinalysis: Occult blood RBC …), the NOEL stood at 2 mg/kg-day.
With `NCCCC1OCC2(CO1)COC(CCCN)OC2` (configuration not stated) [2,4,8,10-Tetraoxaspiro[5.5]undecane-3,9-dipropanamine], in the series on Rattus norvegicus [1] (subchronic, gavage, M, Sprague-Dawley, Clinical Observation: Locomotor activity decrease, Respiratory irregularity Prone position Salivation + Body Weight Changes: decrease1000…), the NOEL is less than 40 mg/kg-day.
As for `ClCCc1ccccc1` [1-Chloro-2-phenylethane], the NOEL in the series on Rattus norvegicus [1] (short-term, duration: 28 days, gavage, M/F, Sprague-Dawley, Food Consumption: decrease + Urinalysis: Volume increase, Prot decrease + Hematology: RBC increase, MCV decrease, MCH decrease + Absolute …) was found to be 60 mg/kg-day.
